Data from US7297353B2, “Use of anemonin for treating aseptic inflammations” (priority 2000, dated 2007).
Read-outs that look alike come from different tables or passages of the source.

Columns and labels:
[1] = tested on: murine spleens cells stimulated with LPS; assay: B-cell proliferation, spleen cells stimulated with LPS ([3H]-thymidine uptake); format: cell-based, ICR mice; settings: for [^3H]-TDRincorparation(CPM × 10^−3): LPS 10 μg/ml, 48 hrs
Protocol: Fresh spleen cells were obtained from ICR mice (male, 7-9 weeks old), 5×10^5 of spleen cells were cultured in 96-well flat plates with […] of RPMI 1640 media containing 10% FBS, 100 U/ml penicillin and 100 μg/ml streptomyin in a humidified, 37° C., 5% CO2 incubator for 48 hrs. The cultures were either unstimulated, or were stimulated with 5 μg/ml of ConA or 10 μg/ml of LPS to induce T cells or B cells proliferative responses respectively. The compounds were added in cultures with indicated concentrations to test their bioactivities. Profileration was assessed in terms of uptake of [^3H]-thymidine during 6-12 hours pulsing with 20 kBq [^3H]-thymidine/well, then the cells were harvested by a Basic 96 harvester, and counted in a 1540 MicroBeta Trilux (PerkinElmer Life Sciences).

spleen cells = assay: Cytotoxicity effect of anemonin (MTT assay); format: cell-based, ICR mice; settings: for OD value: 48 h
Protocol: The cell viability was determined by using 3-(4,5-dimethylthiazol-2-yl)-2,5-Diphenyl-tetrazolium bromide (MTT) assay. In brief, fresh spleen cells were obtained from ICR mice (male, 7-9 weeks old), 5×10^5 of spleen cells were cultured in 96-well flat plates. The medium was contained various concentrations of anemonin. After incubation for up to 48 h, MTT solution (5 mg/m in saline) was added to the 96 plates and cells were allowed to incubate for 6 h at 37° C. After the medium had been removed 100 μl, the cell and dye crystals were solubilized by adding 100 μl 10% sodium dodecyl sulfate (SDS), and then absorption was measured at 570 nm with a model 550-microplate reader (Bio-Rad).

[2] = tested on: B-lymphocytes from the whole spleen of mice; assay: LPS-induced responsive proliferation of B-lymphocytes ([3H] thymidine); format: cell-based; settings: for Proliferation of B-lymphoctes LPS stimulation Average of CPM values / Proliferation of B-lymphocytes LPS stimulation Average of CPM values: LPS at 10 μg/ml, 48 hours; for inhibition of LPS-induced responsive proliferation of B-lymphocytes: final concentration range from 1 μg/ml to 100 μg/ml
Protocol: 5.2.1. Mice were sacrificed by removing spondyle, spleen was cut off in a sterile condition and then ground to obtain single cell suspension. After erythrocytes were got rid of the remained cells were diluted to […] with RPMI-1640 culture solution containing 10% fetal bovine serum.
5.2.2. 200 μl solution in total volume (including 100 μl the cell suspension, 50 μl sample and 50 μl ConA or LPS) was dispensed on 96-well plate.
50 μl culture solution containing 10% fetal bovine serum, instead of 50 μl sample, was added as negative control, in which the total volume was also 200 μl.
5.2.3. The cell was cultured at 37° C. and under 5% CO2 in incubator for 48 hours, and [^3H] thymidine (1.9×10^4 Bq) was added to the plate at 25 μl/well 12 hours before the end of culture.
5.2.4. The culture was continued. The plates were then stored at −20° C. in refrigeratory after the culture. The thawed cells were collected to fiberglass membrane (Nitrocellose membrane) with cell collector when detecting. After the addition of Scintillation solution, the quantity of [^3H] thymidine incorporated into DNA of cells was detected by Beta counter (MicroBeta Trilux, PerkinElmer LifeSciences). The proliferation of lymphocytes was indicated by cpm value.
Effect of the medicament on LPS-induced responsive proliferation of B-lymphocytes was examined, said B-lymphocytes were from the whole spleen of mice. LPS at 10 μg/ml final concentration was used as the stimulator to induce responsive proliferation of B-lymphocytes from the whole spleen of ICR homogenous mice (cultured in vitro for 48 hours).

IFN-γ = assay: Cytokine production from splenocytes, Sac stimulation, IFN-γ (ELISA); format: cell-based, murine; settings: 24 h
Protocol: For splenocyte cytokine production assay, 5×10^6 cells per well were inoculated into a 24-well tissue culture plate with ConA (5 mg/L) or Sac (1:10000) stimulation. Different concentrations of Anemonin were added in a final volume of 2 ml. Cells were incubated at 37° C., 5% CO2 for 24 h and supernatants were harvested, IFN-γ, IL-10, IL12 (p40) and IL-2 in supernatants were measured by the sandwich enzyme-linked immunosorbent assay (ELISA) as specified by the manufacturer (BD Bioscience pharmingen, US). Concentrations of the cytokine productions were calculated based on standard curves obtained from serial dilutions of murine cytokines (r IFN-γ, rIL-10, rIL12, rIL-2). As shown in Tables C-3 and C-4, high-dose Anemonin (1-100 μg/ml) inhibited all kinds of cytokine release induced by ConA or Sac.

`O=C1C=CC2(CCC23C=CC(=O)O3)O1` (stereo not shown) [Anemonin, anemonin] was tested, and the “[^3H]-TDRincorparation(CPM × 10^−3)” value ([1]; 0.001 μg/ml) was 52.0 ± 2.27 CPM × 10^−3, the “[^3H]-TDRincorparation(CPM × 10^−3)” value ([1]; 0.01 μg/ml) was 47.2 ± 3.41 CPM × 10^−3 and the “[^3H]-TDRincorparation(CPM × 10^−3)” value ([1]; 0.1 μg/ml) was 47.5 ± 3.60 CPM × 10^−3. For the same molecule, the “[^3H]-TDRincorparation(CPM × 10^−3)” value ([1]; 1 μg/ml) was 34.4 ± 2.41 CPM × 10^−3, the “[^3H]-TDRincorparation(CPM × 10^−3)” value ([1]; 10 μg/ml) was 0.11 ± 0.15 CPM × 10^−3 and the “[^3H]-TDRincorparation(CPM × 10^−3)” value ([1]; 100 μg/ml) was 0.17 ± 0.26 CPM × 10^−3. The B-cell proliferation ([1]; 1-100 μg/ml) was “significantly inhibited”, the cytotoxicity (spleen cells; 0.001 ug/ml) was “No” and the OD value (spleen cells; 0.001 ug/ml, 570 nM) was 0.196 ± 0.006. The cytotoxicity (spleen cells; 0.01 ug/ml) was “No”, the OD value (spleen cells; 0.01 ug/ml) was 0.193 ± 0.007 and the cytotoxicity (spleen cells; 0.1 ug/ml) was “No”. The OD value (spleen cells; 0.1 ug/ml) was 0.200 ± 0.011, the cytotoxicity (spleen cells; 1 ug/ml) was “Yes” and the OD value (spleen cells; 1 ug/ml) was 0.160 ± 0.004. The cytotoxicity (spleen cells; 10 ug/ml) was “Yes”, the OD value (spleen cells; 10 ug/ml) was 0.135 ± 0.003 and the cytotoxicity (spleen cells; 100 ug/ml) was “Yes”. The OD value (spleen cells; 100 ug/ml) was 0.118 ± 0.011, the cytotoxic effects (spleen cells; 1-100 μg/ml) was “cytotoxic effects in a dose-dependent manner” and the “Proliferation of B-lymphoctes LPS stimulation Average of CPM values” ([2]; 0.001 μg/ml, Table B-6) was 39272 CPM. For the same molecule, the “Proliferation of B-lymphoctes LPS stimulation Average of CPM values” ([2]; 0.01 μg/ml, Table B-6) was 39551 CPM, the “Proliferation of B-lymphoctes LPS stimulation Average of CPM values” ([2]; 0.1 μg/ml, Table B-6) was 39615 CPM and the “Proliferation of B-lymphocytes LPS stimulation Average of CPM values” ([2]; 1 μg/ml, Table B-5) was 10137 CPM. The “Proliferation of B-lymphoctes LPS stimulation Average of CPM values” ([2]; 1 μg/ml, Table B-6) was 32154 CPM, the “Proliferation of B-lymphocytes LPS stimulation Average of CPM values” ([2]; 10 μg/ml, Table B-5) was 190 CPM and the “Proliferation of B-lymphoctes LPS stimulation Average of CPM values” ([2]; 10 μg/ml, Table B-6) was 40840 CPM. For the same molecule, the “Proliferation of B-lymphocytes LPS stimulation Average of CPM values” ([2]; 100 μg/ml, Table B-5) was 164 CPM, the “Proliferation of B-lymphoctes LPS stimulation Average of CPM values” ([2]; 100 μg/ml, Table B-6) was 24523 CPM and the inhibition at 0.001 µg/mL ([2]; Mus musculus, 0.001 μg/ml, LPS stimulation, Table B-6, read-out: General assess of activity Enhancement/Inhibition) was -7%. It also gave an inhibition at 0.01 µg/mL ([2]; Mus musculus, 0.01 μg/ml, LPS stimulation, Table B-6, read-out: General assess of activity Enhancement/Inhibition) of -8%, an inhibition at 0.1 µg/mL ([2]; Mus musculus, 0.1 μg/ml, LPS stimulation, Table B-6, read-out: General assess of activity Enhancement/Inhibition) of -8% and an inhibition at 1 µg/mL ([2]; Mus musculus, 1 μg/ml, LPS stimulation, Table B-5, read-out: General assess of activity Enhancement/Inhibition) of 33%. For the same molecule, the inhibition at 1 µg/mL ([2]; Mus musculus, 1 μg/ml, LPS stimulation, Table B-6, read-out: General assess of activity Enhancement/Inhibition) was 13%, the inhibition at 10 µg/mL ([2]; Mus musculus, 10 μg/ml, LPS stimulation, Table B-5, read-out: General assess of activity Enhancement/Inhibition) was 99% and the inhibition at 10 µg/mL ([2]; Mus musculus, 10 μg/ml, LPS stimulation, Table B-6, read-out: General assess of activity Enhancement/Inhibition) was -11%. The inhibition at 100 µg/mL ([2]; Mus musculus, 100 μg/ml, LPS stimulation, Table B-5, read-out: General assess of activity Enhancement/Inhibition) was 99%, the inhibition at 100 µg/mL ([2]; Mus musculus, 100 μg/ml, LPS stimulation, Table B-6, read-out: General assess of activity Enhancement/Inhibition) was 33% and the “inhibition of LPS-induced responsive proliferation of B-lymphocytes” value [2] was “sharply inhibited”. For the same molecule, the “inhibition of LPS-induced responsive proliferation of B-lymphocytes” value ([2]; listed as anemonin) was “remarkably inhibited”, the “IFN-γ” value (IFN-γ; 0.001 μg/ml) was 237 ± 3 pg/mL and the “IFN-γ” value (IFN-γ; 0.01 μg/ml) was 230 ± 23 pg/mL. The “IFN-γ” value (IFN-γ; 0.1 μg/ml) was 143 ± 0 pg/mL, the “IFN-γ” value (IFN-γ; 1 μg/ml) was 95 ± 2 pg/mL and the “IFN-γ” value (IFN-γ; 10 μg/ml) was 98 ± 7 pg/mL. For the same molecule, the “IFN-γ” value (IFN-γ; 100 μg/ml) was 89 ± 2 pg/mL.
